Read-outs that look alike come from different tables or passages of the source.
Tests used:
BACE1 = BACE1 (Homo sapiens, UniProt P56817); test: In vitro enzymatic BACE FRET (fluorescence resonance energy transfer) assay; assay type: biochemical
Summary of the method: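 Cleavage of a quenched peptide FRET substrate (50 nM) in 0.05 M acetate pH 4.2, 10% DMSO, 100 uM genapol, 1 h incubation. Reaction stopped by Tris neutralization; fluorescence read at excitation 488 nm / […].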

Abeta peptide = test: In vivo inhibition of beta-secretase: Abeta peptide in CSF and brain after oral dosing; conditions: orally dosed at about 30 mg/kg; for inhibition in vivo at 30 mg/kg: Rattus norvegicus, po, CSF, read-out: reduction of Abeta peptide in the CSF of the rat
Text: In Vivo Inhibition of Beta-Secretase
Several animal models, including mouse, rat, dog, and monkey, may be used to screen for inhibition of beta-secretase activity in vivo following administration of a test compound sample. Animals used in this invention can be wild type, transgenic, or gene knockout animals. For example, the Tg2576 mouse model, prepared and conducted as described in Hsiao et al., 1996, Science 274, 99-102, and other non-transgenic or gene knockout animals are useful to analyze in vivo inhibition of Amyloid beta peptide (Abeta) production in the presence of inhibitory test compounds. Generally, 2 to 18 month old Tg2576 mice, gene knockout mice or non-transgenic animals are administered test compounds formulated in vehicles, such as cyclodextran, phosphate buffers, hydroxypropyl methylcellulose or other suitable vehicles. […] A separate group of animals receive 2% hydroxypropyl methylcellulose, 1% Tween80 alone, containing no test compound, and serve as a vehicle-control group. At the end of the test period, animals are sacrificed and brain tissues, plasma or cerebrospinal fluid are collected. Brains are either homogenized in 10 volumes (w/v) of 0.2% diethylamine (DEA) in 50 mM NaCl (Best et al., 2005, Journal of Pharmacology and Experimental Therapeutics, 313, 902-908), or in 10 volumes of 0.5% TritonX-100 in Tris-buffered saline (pH at about 7.6). Homogenates are centrifuged at 355,000 g, 4° C. for 30 minutes. CSF or brain supernatants are then analyzed for the presence of Abeta peptide by specific sandwich ELISA assays based on ECL (Electrochemiluminescence) technology. For example, rat Abeta40 is measured using biotinylated-4G8 (Signet) as a capture antibody and Fab40 (an in-house antibody specific to the C-terminal of Abeta40) as a detection antibody. For example, 4 hours after administration of 30 mg/kg oral dose of the test compound in 2% hydroxypropyl methylcellulose, 1% Tween80 (pH2.2) to 200 g male Sprague Dawley rats, Abeta peptide levels are measured for reduction by X % and Y % in cerebrospinal fluid and brain, respectively, when compared to the levels measured in the vehicle-treated or control […].
Actual vehicles used: Oral: 2% HPMC, 1% Tween80, pH 2.2
• IV: 5% EtOH, 45% Propylene glycol in 5% Dextrose

[1] = system: Cells stably expressing Amyloid Precursor Protein (APP); test: In vitro BACE cell-based assay (HEK cell assay): Aβ40 in conditioned medium by sandwich ELISA
Summary of the method: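 APP-stably-expressing cells were grown 24 h in DMEM/10% FBS, then treated for 24 h with 10-point doses starting at 100 μM or 10 μM, at 0.1% DMSO final. Aβ40 in conditioned medium was measured by sandwich ELISA (pAb40 capture, biotinylated 6E10 detection, europium time-resolved fluorescence); IC50 from percent inhibition.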

[2] = Microsomal stability assay, rat liver microsomes; assay type: in vitro ADME
Text: (§1) Microsomal Stability Assay

CYP3A = CYP3A (Homo sapiens, UniProt P08684); test: CYP3A inhibition assay (midazolam, pooled human liver microsomes); assay type: in vitro ADME; conditions: microsomes
Chain of CYP3A (P08684 2-503): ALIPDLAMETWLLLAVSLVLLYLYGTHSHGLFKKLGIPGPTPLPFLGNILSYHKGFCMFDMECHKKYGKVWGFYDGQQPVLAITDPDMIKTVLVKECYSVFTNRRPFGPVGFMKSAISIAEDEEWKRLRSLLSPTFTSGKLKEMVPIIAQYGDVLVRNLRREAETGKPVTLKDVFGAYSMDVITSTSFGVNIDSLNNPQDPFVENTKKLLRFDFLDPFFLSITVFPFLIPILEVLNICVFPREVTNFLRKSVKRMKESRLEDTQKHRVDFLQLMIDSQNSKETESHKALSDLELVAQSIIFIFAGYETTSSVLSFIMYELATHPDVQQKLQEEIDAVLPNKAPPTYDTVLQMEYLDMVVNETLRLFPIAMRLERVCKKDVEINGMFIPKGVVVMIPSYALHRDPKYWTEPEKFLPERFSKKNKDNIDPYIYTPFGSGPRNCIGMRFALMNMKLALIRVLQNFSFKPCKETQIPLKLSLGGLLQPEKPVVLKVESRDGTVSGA

[3] = Microsomal stability assay, human liver microsomes; assay type: in vitro ADME
Text: as §1

CYP3A4 (CYP3A) = CYP3A4 (CYP3A) (Homo sapiens, UniProt P08684); test: CYP3A inhibition assay (midazolam, pooled human liver microsomes); assay type: in vitro ADME; conditions: human, pooled human liver microsomes, pH 7.4, probe midazolam (printed as about […]); read-out: 3A4 IC50
Chain of CYP3A4 (CYP3A) (P08684 2-503): as above

[4] = Homo sapiens, HEK293, 24 h, Aβ40 in conditioned medium after 24 h incubation

Chain of BACE1 (P56817 46-501, species assumed): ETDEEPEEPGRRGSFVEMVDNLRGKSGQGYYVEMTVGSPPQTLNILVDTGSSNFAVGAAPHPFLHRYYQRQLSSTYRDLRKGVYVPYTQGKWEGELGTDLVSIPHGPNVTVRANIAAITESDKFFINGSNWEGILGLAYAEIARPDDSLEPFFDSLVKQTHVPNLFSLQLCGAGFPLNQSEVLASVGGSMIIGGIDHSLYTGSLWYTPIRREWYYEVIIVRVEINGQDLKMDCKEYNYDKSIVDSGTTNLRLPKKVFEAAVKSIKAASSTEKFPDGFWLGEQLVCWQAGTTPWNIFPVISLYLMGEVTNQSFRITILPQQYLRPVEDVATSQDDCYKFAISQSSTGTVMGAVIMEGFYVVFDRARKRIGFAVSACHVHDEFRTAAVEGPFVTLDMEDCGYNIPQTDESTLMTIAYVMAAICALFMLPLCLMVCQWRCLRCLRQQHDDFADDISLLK

Row | Compound | IC50 (BACE1) | inhibition in vivo at 30 mg/kg (Abeta peptide) | IC50 [1, 4] | RLM [2] | IC50 (BACE1; read-out: BACE 1 FRET assay) | IC50 [1] | IC50 (CYP3A) | HLM [3] | reduction of Abeta peptide in the brain of the rat (Abeta peptide; brain) | IC50 ([1]; Homo sapiens, HEK293) | IC50 at 10 min (CYP3A4 (CYP3A))
1 | C=CC[C@H](NC(=O)CF)[C@H](O)CN[C@H]1CC2(CCC2)Oc2ncc(CC(C)(C)C)cc21 [Example 90, N-((1S)-1-((1R)-2-(((4′S)-6′-(2,2-dimethylpropyl)-3′,4′-dihydrospiro[cyclobutane-1,2′-pyrano[2,3-b]pyridin]-4′-yl)amino)-1-hydroxyethyl)-3-buten-1-yl)-2-fluoroacetamide] | 68 nM | ≥ 5% |  |  |  |  |  |  |  |  | 
2 | CC#CC[C@H](NC(=O)[C@@H](C)OC)[C@H](O)CN[C@H]1CC2(CCC2)Oc2ncc(CC(C)(C)C)cc21 [Example 87, (2R)-N-((1S)-1-((1R)-2-(((4′S)-6′-(2,2-dimethylpropyl)-3′,4′-dihydrospiro[cyclobutane-1,2′-pyrano[2,3-b]pyridin]-4′-yl)amino)-1-hydroxyethyl)-3-pentyn-1-yl)-2-(methyloxy)propanamide] | 109 nM | ≥ 5% | 185 nM |  |  |  |  |  |  |  | 
3 | C=CC[C@H](NC(=O)CCOC)[C@H](O)CN[C@H]1CC2(CCC2)Oc2ncc(CC(C)(C)C)cc21 [Example 91, N-((1S)-1-((1R)-2-(((4′S)-6′-(2,2-dimethylpropyl)-3′,4′-dihydrospiro[cyclobutane-1,2′-pyrano[2,3-b]pyridin]-4′-yl)amino)-1-hydroxyethyl)-3-buten-1-yl)-3-(methyloxy)propanamide] | 68 nM | ≥ 5% |  |  |  |  |  |  |  |  | 
4 | C=CCC(NC(=O)COC)C(O)CNC1CC2(CC(O)C2)Oc2ncc(CC(C)(C)C)cc21 [Example 107, N-((1S)-1-((1R)-2-(((1s,3S,4′S)-6′-(2,2-dimethylpropyl)-3-hydroxy-3′,4′-dihydrospiro[cyclobutane-1,2′-pyrano[2,3-b]pyridin]-4′-yl)amino)-1-hydroxyethyl)-3-buten-1-yl)-2-(methyloxy)acetamide] | 16 nM | ≥ 5% | 35 nM |  |  |  |  |  |  |  | 
5 | CC#CCC(NC(=O)C1CCC(=O)O1)C(O)CNC1CC2(CCC2)Oc2ncc(CC(C)(C)C)cc21 [Example 88, (S)-N((2R,3S)-1((S)-2,2-spirocyclobutane-6-neopentyl-3′,4′-dihydro-2H-pyrano[2,3-b]pyridin]-4′-ylamino)-2-hydroxyhept-5-yn-3-yl)-5-oxo-tetrahydrofuran-2-carboxamide.] | 20 nM | ≥ 5% | 72 nM |  |  |  |  |  |  |  | 
6 | N-((1S)-1-((1R)-2-(((4′S)-6′-(2,2-dimethylpropyl)-8′-(1-methyl-1H-imidazol-2-yl)-3′,4′-dihydrospiro[cyclobutane-1,2′-pyrano[2,3-c]pyridin]-4′-yl)amino)-1-hydroxyethyl)-3-buten-1-yl)-2-methoxyacetamide [Example 239] |  |  |  | 340 µL/min/mg | 208 nM | 1500 nM | 1100 nM | 311 µL/min/mg |  |  | 
7 | CC#CC[C@H](NC(=O)COC)[C@H](O)CN[C@H]1CC2(CCC2)Oc2ncc(CC(C)(C)C)cc21 [Example 89, N-((1S)-1-((1R)-2-(((4′S)-6′-(2,2-dimethylpropyl)-3′,4′-dihydrospiro[cyclobutane-1,2′-pyrano[2,3-b]pyridin]-4′-yl)amino)-1-hydroxyethyl)-3-pentyn-1-yl)-2-(methyloxy)acetamide] | 71 nM | ≥ 5% | 132 nM |  |  |  |  |  |  |  | 
8 | C=CC[C@H](NC(=O)COC)[C@H](O)CN[C@H]1CC2(CCC2)Oc2c1cc(CC(C)(C)C)nc2NC [Example 47, N-((1S)-1-((1R)-2-(((4′S)-6′-(2,2-dimethylpropyl)-8′-(methylamino)-3′,4′-dihydrospiro[cyclobutane-1,2′-pyrano[2,3-c]pyridin]-4′-yl)amino)-1-hydroxyethyl)-3-buten-1-yl)-2-(methyloxy)acetamide] | 164 nM |  | 38 nM |  |  |  |  |  | ~25% |  | 
9 | C=CC[C@H](NC(=O)[C@@H]1CN(Cc2nccs2)CCO1)[C@H](O)CN[C@H]1CC2(CCC2)Oc2ncc(CC(C)(C)C)cc21 [compound 246, (2S)-N-((1S)-1-((1R)-2-(((4′S)-6′-(2,2-dimethylpropyl)-3′,4′-dihydrospiro[cyclobutane-1,2′-pyrano[2,3-b]pyridin]-4′-yl)amino)-1-hydroxyethyl)-3-buten-1-yl)-4-(1,3-thiazol-2-ylmethyl)-2-morpholinecarboxamide] |  |  |  | 335 µL/min/mg | 128 nM |  |  | 736 µL/min/mg |  | 116 nM | 700 nM
10 | C=CC[C@H](NC(=O)[C@H]1CCC(=O)O1)[C@H](O)CN[C@H]1CC2(CCC2)Oc2ncc(CC(C)(C)C)cc21 [compound 211] |  |  |  | 137 µL/min/mg | 15 nM |  |  | 104 µL/min/mg |  | 57 nM | 1300 nM
11 | CCC[C@H](NC(=O)COC)[C@H](O)CN[C@H]1CC2(CCC2)Oc2c1cc(CC(C)(C)C)nc2NC [compound 226] |  |  |  | 259 µL/min/mg | 617 nM |  |  | 161 µL/min/mg |  | 83 nM | 5000 nM
12 | CCC[C@H](NC(=O)[C@H]1CCCO1)[C@H](O)CN[C@H]1CC2(CCC2)Oc2c1cc(CC(C)(C)C)nc2NC [compound 228, (2R)-N-((1S)-1-((1R)-2-(((4′S)-6′-(2,2-dimethylpropyl)-8′-(methylamino)-3′,4′-dihydrospiro[cyclobutane-1,2′-pyrano[2,3-c]pyridin]-4′-yl)amino)-1-hydroxyethyl)butyl)tetrahydro-2-furancarboxamide] |  |  |  | 345 µL/min/mg | 627 nM |  |  | 165 µL/min/mg |  | 781 nM | 1500 nM
13 | C=CC[C@H](NC(=O)[C@@H](C)OC)[C@H](O)CN[C@H]1CC2(CCC2)Oc2c1cc(CC(C)C)cc2-n1ccnc1 [compound 208, (2R)-N-((1S)-1-((1R)-1-hydroxy-2-(((4S)-8-(1H-imidazol-1-yl)-6-(2-methylpropyl)-3,4-dihydrospiro[chromene-2,1′-cyclobutan]-4-yl)amino)ethyl)-3-buten-1-yl)-2-methoxypropanamide] |  |  |  | 337 µL/min/mg | 477 nM |  |  | 40.5 µL/min/mg |  | 416 nM | 200 nM
14 | C=CC[C@H](NC(=O)COC)[C@H](O)CN[C@H]1CC2(CCC2)Oc2c(-c3ccncc3)cc(CC(C)(C)C)cc21 [compound 219] |  |  |  | 360 µL/min/mg | 170 nM |  |  | 106 µL/min/mg |  | 249 nM | 100 nM
15 | C=CC[C@H](NC(=O)C1COC(c2cccnc2)O1)[C@H](O)CN[C@H]1CC2(CCC2)Oc2ncc(CC(C)(C)C)cc21 (stereo partly drawn) [compound 243, N-((1S)-1-((1R)-2-(((4′S)-6′-(2,2-dimethylpropyl)-3′,4′-dihydrospiro[cyclobutane-1,2′-pyrano[2,3-b]pyridin]-4′-yl)amino)-1-hydroxyethyl)-3-buten-1-yl)-2-(3-pyridinyl)-1,3-dioxolane-4-carboxamide] |  |  |  | 173 µL/min/mg | 2160 nM |  |  | 601 µL/min/mg |  | 982 nM | 300 nM
16 | C=CC[C@H](NC(C)=O)[C@H](O)CN[C@H]1CC2(CCC2)Oc2c1cc(CC(C)(C)C)nc2NC [Example 44, N-((1S)-1-((1R)-2-(((4′S)-6′-(2,2-dimethylpropyl)-8′-(methylamino)-3′,4′-dihydrospiro[cyclobutane-1,2′-pyrano[2,3-c]pyridin]-4′-yl)amino)-1-hydroxyethyl)-3-buten-1-yl)acetamide] | 65 nM | ≥ 5% | 20 nM |  |  |  |  |  |  |  | 
